According to patent US4122034A, “Antimicrobial compositions” (Schering Corporation, priority 1975, dated 1978):
In brackets after ≈: the same amount, converted by molar mass.

Assays:
Candida albicans = test: In vitro Anti-Candida activity, dilutions in Sabouraud's Dextrose Agar (Table III); format: cell-based; conditions: 48 h
Method: (§1) All the tests were carried out and (when necessary) scored under standard conditions. "MIC" means "minimum inhibitory concentration."
In vitro Anti-Candida Activity of 2-aminoalkyl-3-phenyl-
indoles of the formula I. Dilutions in Sabouraud's Dextrose
MIC (mcg/ml) after 48 hours

Enterococcus = test: In vitro antibacterial activity, dilution in Mueller Hinton Agar (Table I); format: cell-based
Method: as §1
In vitro Antibacterial Activity of 2-aminoalkyl-3-phenyl-
indoles of the formula I. Dilution in Mueller Hinton Agar pH 7.4

T. mentagrophytes = test: Effect against topical T. mentagrophytes infections in guinea pigs (Table VI); format: in vivo; design: Average Sum of lesion scores, Days 1-5 / Average Sum of lesion scores, Days 1-10: scale not given here; conditions: for Average Sum of lesion scores, Days 1-5: untreated controls 14.8; for Average Sum of lesion scores, Days 1-10: untreated controls 38.2
Method: as §1
Effect of some 2-aminoalkyl-3-phenylindoles of the formula II
against topical T. mentagrophytes infections in guinea pigs.

[1] = system: Bacteroides melaninogenicus; test: In vitro activity against anaerobes in fluid Thioglycollate medium (Table II); format: cell-based
Method: as §1
(§2) In vitro activity of 2-aminoalkyl-3-phenylindoles of the formula I
(§3) against anaerobes in fluid Thioglycollate medium

Clostridium septicum = test: as above; format: cell-based
Method: as §1, §2, §3

Bacteroides corrodens = test: as above; format: cell-based; conditions: Eikenella corrodens
Method: as §1, §2, §3

Clostridium novyi = test: as above; format: cell-based
Method: as §1, §2, §3

Peptostreptococcus = test: as above; format: cell-based
Method: as §1, §2, §3

Clostridium histolyticum = test: as above; format: cell-based; conditions: Hathewaya histolytica
Method: as §1, §2, §3

Eubacterium lentum = test: as above; format: cell-based; conditions: Eggerthella lenta
Method: as §1, §2, §3

Bacteroides fragilis = test: as above; format: cell-based
Method: as §1, §2, §3

Trichophyton megninii = test: In vitro antifungal activity, dilutions in Sabouraud's Dextrose Broth (Table IV); format: cell-based; conditions: Trichophyton rubrum; after 96 hours
Method: as §1
(§4) In vitro Antifungal Activity of 2-amioalkyl-3-phenylindoles
(§5) of the formula I against Dermetophytes and Aspergillus.
(§6) Dilutions in Sabouraud's Dextrose Broth.

Trichophyton ferrugineum = test: as above; format: cell-based; conditions: Microsporum ferrugineum; after 96 hours
Method: as §1, §4, §5, §6

Aspergillus niger 6275 = test: as above; format: cell-based; conditions: after 96 hours
Method: as §1, §4, §5, §6

Tricoderm sp. = test: as above; format: cell-based; conditions: after 96 hours
Method: as §1, §4, §5, §6

Epidermophyton floccosum = test: as above; format: cell-based; conditions: after 96 hours
Method: as §1, §4, §5, §6

Trichophyton gallinae = test: as above; format: cell-based; conditions: after 96 hours
Method: as §1, §4, §5, §6

Trichophyton ascoides = test: as above; format: cell-based; conditions: after 96 hours
Method: as §1, §4, §5, §6

Trichophyton soudenense = test: as above; format: cell-based; conditions: after 96 hours
Method: as §1, §4, §5, §6

Aspergillus sp. No. 3 = test: as above; format: cell-based; conditions: after 96 hours
Method: as §1, §4, §5, §6

Microsporum nanum = test: as above; format: cell-based; conditions: Nannizzia nana; after 96 hours
Method: as §1, §4, §5, §6

Trichophyton discoides = test: as above; format: cell-based; conditions: after 96 hours
Method: as §1, §4, §5, §6

[2] = system: Trichophyton schoenleinii; test: as above; format: cell-based; conditions: 96 h
Method: as §1, §4, §5, §6

Trichophyton tonsurans = test: as above; format: cell-based; conditions: after 96 hours
Method: as §1, §4, §5, §6

Microsporum distortum = test: as above; format: cell-based; conditions: after 96 hours
Method: as §1, §4, §5, §6

[3] = system: Trichophyton mentagrophytes; test: as above; format: cell-based; conditions: 96 h
Method: as §1, §4, §5, §6

Trichophyton rubrum = test: as above; format: cell-based; conditions: 96 h
Method: as §1, §4, §5, §6

Trychomonas vaginalis = test: In vitro Anti-Trichomonal activity (Table VII); format: cell-based
Method: as §1
In vitro Anti-Trichomonal Activity of some 2-aminoalkyl-3-
phenyl-indenes of formula II.

[4] = Acute toxicity in mice (Table V); conditions: mouse, in vivo
Method: as §1
Acute Toxicity of 2-aminoalkyl-3-phenylindoles of the formula I

Compound `NCc1[nH]c2ccc(Cl)cc2c1-c1ccccc1` [C, 2-(1-aminomethyl)-5-chloro-3-phenylindole] has an MIC (Candida albicans; strain 1, after 48 hours) of 75 µg/mL (≈ 292 µM), an MIC (Candida albicans; strain 2, after 48 hours) of 75 µg/mL (≈ 292 µM) and an MIC (Candida albicans; strain 3, after 48 hours) of 75 µg/mL (≈ 292 µM). For the same compound, the MIC (Candida albicans; strain 4, after 48 hours) was 37.5 µg/mL (≈ 146 µM), the MIC (Candida albicans; strain 5, after 48 hours) was 75 µg/mL (≈ 292 µM) and the MIC (Candida albicans; strain 6, after 48 hours) was 75 µg/mL (≈ 292 µM). The MIC (Candida albicans; strain 8, after 48 hours) was 75 µg/mL (≈ 292 µM), the MIC (Candida albicans; strain 9, after 48 hours) was 75 µg/mL (≈ 292 µM) and the MIC (Candida albicans; strain 29, after 48 hours) was 37.5 µg/mL (≈ 146 µM). The MIC (Candida albicans; strain Atkisson, after 48 hours) was 75 µg/mL (≈ 292 µM), the MIC (Candida albicans; strain Bertrand, after 48 hours) was 75 µg/mL (≈ 292 µM) and the MIC (Candida albicans; strain Bevan, after 48 hours) was 75 µg/mL (≈ 292 µM). The MIC (Candida albicans; strain Blunden, after 48 hours) was 75 µg/mL (≈ 292 µM), the MIC (Candida albicans; strain Bognay, after 48 hours) was 75 µg/mL (≈ 292 µM) and the MIC (Candida albicans; strain Boyer, after 48 hours) was 75 µg/mL (≈ 292 µM). It also gave an MIC (Candida albicans; strain Burke, after 48 hours) of 75 µg/mL (≈ 292 µM), an MIC (Candida albicans; strain Burnside, after 48 hours) of 75 µg/mL (≈ 292 µM) and an MIC (Candida albicans; strain Collins, after 48 hours) of 75 µg/mL (≈ 292 µM). The MIC (Candida albicans; strain Fix, after 48 hours) was 75 µg/mL (≈ 292 µM), the MIC (Candida albicans; strain Frazier, after 48 hours) was 75 µg/mL (≈ 292 µM) and the MIC (Candida albicans; strain Fulcher, after 48 hours) was 75 µg/mL (≈ 292 µM). The MIC (Candida albicans; strain Gay, after 48 hours) was 75 µg/mL (≈ 292 µM), the MIC (Candida albicans; strain Hons, after 48 hours) was 75 µg/mL (≈ 292 µM) and the MIC (Candida albicans; strain Johnson, after 48 hours) was 75 µg/mL (≈ 292 µM). For the same compound, the MIC (Candida albicans; strain Kenndy 2, after 48 hours) was 75 µg/mL (≈ 292 µM), the MIC (Candida albicans; strain Kennedy 1, after 48 hours) was 37.5 µg/mL (≈ 146 µM) and the MIC (Candida albicans; strain Lehtman, after 48 hours) was 75 µg/mL (≈ 292 µM). For the same compound, the MIC (Candida albicans; strain Lusk, after 48 hours) was 75 µg/mL (≈ 292 µM), the MIC (Candida albicans; strain Merkel, after 48 hours) was 75 µg/mL (≈ 292 µM) and the MIC (Candida albicans; strain Newcomb, after 48 hours) was 37.5 µg/mL (≈ 146 µM). The MIC (Candida albicans; strain Sherod, after 48 hours) was 75 µg/mL (≈ 292 µM), the MIC (Candida albicans; strain Shurelli, after 48 hours) was 75 µg/mL (≈ 292 µM) and the MIC (Candida albicans; strain Sparks, after 48 hours) was 75 µg/mL (≈ 292 µM). The MIC (Candida albicans; strain Tyner, after 48 hours) was 75 µg/mL (≈ 292 µM), the MIC (Enterococcus; pH 7.4, strain 373, Mueller Hinton Agar pH 7.4) was 7.5 µg/mL (≈ 29.2 µM) and the MIC (Enterococcus; pH 7.4, strain 0928/72, Mueller Hinton Agar pH 7.4) was 7.5 µg/mL (≈ 29.2 µM). The “Average No. of Days to become negative, Cultures” value (T. mentagrophytes; concentration 1%) was 12.4 days, the “Average No. of Days to become negative, Lesion” value (T. mentagrophytes; concentration 1%) was 14.4 days and the “Average Sum of lesion scores, Days 1-5” value (T. mentagrophytes; concentration 1%) was 13.0. The “Average Sum of lesion scores, Days 1-10” value (T. mentagrophytes; concentration 1%) was 25.0, the “Average No. of Days to become negative, Cultures” value (T. mentagrophytes; concentration 4%) was 5.6 days and the “Average No. of Days to become negative, Lesion” value (T. mentagrophytes; concentration 4%) was 7.4 days. For the same compound, the “Average Sum of lesion scores, Days 1-5” value (T. mentagrophytes; concentration 4%) was 10.0, the “Average Sum of lesion scores, Days 1-10” value (T. mentagrophytes; concentration 4%) was 11.8 and the MIC ([1]; 48 hrs) was 7.5 µg/mL (≈ 29.2 µM). The MIC ([1]; 72 hrs) was 7.5 µg/mL (≈ 29.2 µM), the MIC (Clostridium septicum; 48 hrs) was 3 µg/mL (≈ 11.7 µM) and the MIC (Clostridium septicum; 72 hrs) was 3 µg/mL (≈ 11.7 µM). It also gave an MIC (Bacteroides corrodens; 48 hrs) of 3 µg/mL (≈ 11.7 µM), an MIC (Bacteroides corrodens; 72 hrs) of 3 µg/mL (≈ 11.7 µM) and an MIC (Clostridium novyi; 48 hrs) of 3 µg/mL (≈ 11.7 µM). The MIC (Clostridium novyi; 72 hrs) was 3 µg/mL (≈ 11.7 µM), the MIC (Peptostreptococcus; 48 hrs) was 3 µg/mL (≈ 11.7 µM) and the MIC (Peptostreptococcus; 72 hrs) was 3 µg/mL (≈ 11.7 µM). The MIC (Clostridium histolyticum; 48 hrs) was 3 µg/mL (≈ 11.7 µM), the MIC (Clostridium histolyticum; 72 hrs) was 3 µg/mL (≈ 11.7 µM) and the MIC (Eubacterium lentum; 48 hrs) was 7.5 µg/mL (≈ 29.2 µM). The MIC (Eubacterium lentum; 72 hrs) was 7.5 µg/mL (≈ 29.2 µM), the MIC (Bacteroides fragilis; 48 hrs) was 3 µg/mL (≈ 11.7 µM) and the MIC (Bacteroides fragilis; 72 hrs) was 3 µg/mL (≈ 11.7 µM). For the same compound, the MIC (Trichophyton megninii) was 7.5 µg/mL (≈ 29.2 µM), the MIC (Trichophyton ferrugineum) was 17.5 µg/mL (≈ 68.2 µM) and the MIC (Aspergillus niger 6275) was 17.5 µg/mL (≈ 68.2 µM). It also gave an MIC (Tricoderm sp.) of 7.5 µg/mL (≈ 29.2 µM), an MIC (Epidermophyton floccosum) of 17.5 µg/mL (≈ 68.2 µM) and an MIC (Trichophyton gallinae) of 37.5 µg/mL (≈ 146 µM). The MIC (Trichophyton ascoides) was 7.5 µg/mL (≈ 29.2 µM), the MIC (Trichophyton soudenense) was 17.5 µg/mL (≈ 68.2 µM) and the MIC (Aspergillus sp. No. 3) was 17.5 µg/mL (≈ 68.2 µM). The MIC (Microsporum nanum) was 3 µg/mL (≈ 11.7 µM), the MIC (Trichophyton discoides) was 17.5 µg/mL (≈ 68.2 µM) and the MIC ([2]; strain 2, after 96 hours) was 3 µg/mL (≈ 11.7 µM). It also gave an MIC ([2]; strain not given, after 96 hours) of 17.5 µg/mL (≈ 68.2 µM), an MIC (Trichophyton tonsurans) of 7.5 µg/mL (≈ 29.2 µM) and an MIC (Microsporum distortum) of 7.5 µg/mL (≈ 29.2 µM). It also gave an MIC ([3]; strain A, after 96 hours) of 7.5 µg/mL (≈ 29.2 µM), an MIC ([3]; strain B, after 96 hours) of 7.5 µg/mL (≈ 29.2 µM) and an MIC ([3]; strain C, after 96 hours) of 3 µg/mL (≈ 11.7 µM). For the same compound, the MIC ([3]; strain H377, after 96 hours) was 17.5 µg/mL (≈ 68.2 µM), the MIC ([3]; strain Young, after 96 hours) was 7.5 µg/mL (≈ 29.2 µM) and the MIC (Trichophyton rubrum; strain 3, after 96 hours) was 17.5 µg/mL (≈ 68.2 µM). It also gave an MIC (Trichophyton rubrum; strain 360, after 96 hours) of 7.5 µg/mL (≈ 29.2 µM), an MIC (Trichophyton rubrum; strain Blehl, after 96 hours) of 37.5 µg/mL (≈ 146 µM) and an MIC (Trichophyton rubrum; strain Haggerty, after 96 hours) of 7.5 µg/mL (≈ 29.2 µM). It also gave an IC50 (Trychomonas vaginalis; 50% suppression, read-out: Minimal Level to Produce 50% Suppression) of 30 µg/mL (≈ 117 µM), an IC90 (Trychomonas vaginalis; 90% suppression, read-out: Minimal Level to Produce 90% Suppression) of 38 µg/mL (≈ 148 µM) and an LD50 ([4]; Oral) of over 1000 mg/kg. It also gave an LD50 ([4]; ip, I.P.) of 100 mg/kg and an LD50 ([4]; sc, S.C.) of 600 mg/kg.
